9 compounds from patent publication US20260317324A1, “BIFUNCTIONAL COMPOUNDS FOR DEGRADING BRAF VIA UBIQUITIN PROTEOSOME PATHWAY” (Nurix Therapeutics, Inc., priority 2023, published 2026) can be followed below.

One may read the DC50 as the midpoint of the concentration-degradation curve. A higher DC50 goes with a less potent degrader. As usually defined, the Dmax is the largest share of the target that was removed. A lower Dmax goes with shallow degradation.

Common to all, as to type: cell-based
One experiment concerns the target T1, BRAF G466V (Homo sapiens, UniProt P15056, G466V).
T1 construct: Horizon Discovery (HCT-116 BRAF−/− cells); host or cells: HCT-116 BRAF−/− cells, clone 8, lentiviral transduction
Briefly: BRAF HiBiT degradation assay, C-terminal HiBiT-tagged BRAF G466V overexpressed in HCT-116 BRAF−/− cells (clone 8), Nano-Glo HiBiT Lytic assay. Summed up:
(§1)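 Degradation was read by Nano-Glo HiBiT lytic luminescence, normalised to DMSO-treated tagged cells with wildtype HCT-116 as background. Test cells were lentiviral clones of HCT-116 BRAF−/− carrying HiBiT-tagged mutants in RPMI/10% FBS, given compound at 0.01 nM–1 μM in duplicate. Outputs are the curve-fitted concentration giving 50% degradation and the maximal observed degradation.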
(In general: The HiBiT peptide binds its large partner to form an active luciferase.)

A further experiment deals with T2, BRAF V600E (Homo sapiens, UniProt P15056, V600E).
T2 construct: endogenous C-terminal HiBiT fusion tag on BRAF V600E allele; endogenous in cells; host or cells: A375 clone 1F10 (CRISPR-Cas9 knock-in of the HiBiT tag; parental A375 from ATCC)
T2 sequence (P15056 whole entry V600E, the tested form may be a part): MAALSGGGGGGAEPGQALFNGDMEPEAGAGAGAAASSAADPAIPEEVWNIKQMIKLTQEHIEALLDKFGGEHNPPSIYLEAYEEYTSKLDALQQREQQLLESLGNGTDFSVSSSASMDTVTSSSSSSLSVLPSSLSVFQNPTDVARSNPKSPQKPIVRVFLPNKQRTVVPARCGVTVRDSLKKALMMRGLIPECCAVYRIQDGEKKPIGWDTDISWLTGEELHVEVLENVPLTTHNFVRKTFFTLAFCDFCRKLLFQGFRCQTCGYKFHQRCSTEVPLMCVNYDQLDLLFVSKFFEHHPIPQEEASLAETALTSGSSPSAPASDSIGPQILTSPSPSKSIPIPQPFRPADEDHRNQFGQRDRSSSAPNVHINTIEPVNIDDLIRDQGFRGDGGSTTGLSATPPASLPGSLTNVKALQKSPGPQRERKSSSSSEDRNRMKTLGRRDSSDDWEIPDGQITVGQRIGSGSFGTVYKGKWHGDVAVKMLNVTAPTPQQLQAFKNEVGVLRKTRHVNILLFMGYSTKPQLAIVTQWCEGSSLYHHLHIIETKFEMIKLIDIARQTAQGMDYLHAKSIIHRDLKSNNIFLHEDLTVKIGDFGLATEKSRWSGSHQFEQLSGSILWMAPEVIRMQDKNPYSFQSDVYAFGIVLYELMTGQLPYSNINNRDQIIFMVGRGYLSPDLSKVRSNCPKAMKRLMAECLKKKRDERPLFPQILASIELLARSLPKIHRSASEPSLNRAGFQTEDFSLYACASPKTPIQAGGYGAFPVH
Briefly: BRAF HiBiT degradation assay, C-terminal HiBiT-tagged BRAF V600E A375 cells (clone 1F10), Nano-Glo HiBiT Lytic assay. The note with it: for Dmax: A-375. In short, it runs like this: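 Luminescence from the Nano-Glo HiBiT lytic read-out gave % BRAF V600E remaining versus DMSO-treated tagged cells, with untagged A375 as background. Clone 1F10 cells (10,000/well, 24 h pre-culture) received compound at 1 μM–0.01 nM in half-log steps, 0.2% DMSO; curve fits gave DC50 at Y=50, plus observed Dmax.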

Another experiment deals with T3, BRAF D594G (Homo sapiens, UniProt P15056, D594G).
T3 construct: Horizon Discovery (HCT-116 BRAF−/− cells); host or cells: HCT-116 BRAF−/− cells, clone 63, lentiviral transduction
T3 sequence (P15056 whole entry D594G): as the sequence (P15056 whole entry V600E, the tested form may be a part) above, with D594G, E600V counted along it
Briefly: BRAF HiBiT degradation assay, C-terminal HiBiT-tagged BRAF D594G overexpressed in HCT-116 BRAF−/− cells (clone 63), Nano-Glo HiBiT Lytic assay. Summed up:
as §1

The next experiment deals with T4, BRAF G469A (Homo sapiens, UniProt P15056, G469A).
T4 construct: Horizon Discovery (HCT-116 BRAF−/− cells); host or cells: HCT-116 BRAF−/− cells, clone 34, lentiviral transduction
T4 sequence (P15056 whole entry G469A): as the sequence (P15056 whole entry V600E, the tested form may be a part) above, with G469A, E600V counted along it
Briefly: BRAF HiBiT degradation assay, C-terminal HiBiT-tagged BRAF G469A overexpressed in HCT-116 BRAF−/− cells (clone 34), Nano-Glo HiBiT Lytic assay. In short, it runs like this:
as §1

[1] abbreviates: BRAF G466V, DC50 at 50%: fitted conc. at Y=50.
The mark [2] stands for this setting: HCT-116, BRAF G466V, percentage protein degraded at maximal compound effect relative to DMSO.
Setting [3] is: A375 (BRAF V600E), DC50 at 50%: fitted conc. at Y=50.
Setting [4] is: A375 (BRAF V600E), percentage protein degraded at maximal compound effect relative to DMSO.
[5] abbreviates: BRAF D594G, DC50 at 50%: fitted conc. at Y=50.
Setting [6] is: HCT-116, BRAF D594G, percentage protein degraded at maximal compound effect relative to DMSO.
Where [7] appears, read: Class 2, BRAF G469A, DC50 at 50%: fitted conc. at Y=50.
[8] abbreviates: HCT-116, Class 2, BRAF G469A, percentage protein degraded at maximal compound effect relative to DMSO.
Where [9] appears, read: BRAF G466V (Class 3), HCT-116 BRAF−/− cells, DC50 at 50% degradation.
Setting [10] is: BRAF G466V (Class 3), HCT-116 BRAF−/− cells, observed Dmax relative to DMSO control.
The mark [11] stands for this setting: A375 (BRAF V600E, Class 1), DC50 at 50% degradation.
Where [12] appears, read: A375 (BRAF V600E, Class 1), observed Dmax, % protein degraded relative to DMSO control.
[13] abbreviates: BRAF D594G (Class 3), HCT-116 BRAF−/− cells, DC50 at 50% degradation.
The mark [14] stands for this setting: BRAF D594G (Class 3), HCT-116 BRAF−/− cells, observed Dmax relative to DMSO control.
The mark [15] stands for this setting: BRAF G469A (Class 2), HCT-116 BRAF−/− cells, DC50 at 50% degradation.
[16] abbreviates: BRAF G469A (Class 2), HCT-116 BRAF−/− cells, observed Dmax relative to DMSO control.

T1 sequence (P15056 whole entry G466V): as the sequence (P15056 whole entry V600E, the tested form may be a part) above, with G466V, E600V counted along it

With `CCCS(=O)(=O)Nc1cccc(-c2cn(-c3ccc(N4CCN(CC5CCN(c6ccc([C@H]7CCC(=O)NC7=O)cc6)CC5)CC4)cc3)nc2-c2ccncc2)c1F` [Compound 16, N-{3-[1-(4-{4-[(1-{4-[(3R)-2,6-dioxopiperidin-3-yl]phenyl}piperidin-4-yl)methyl]piperazin-1-yl}phenyl)-3-(pyridin-4-yl)-1H-pyrazol-4-yl]-2-fluorophenyl}propane-1-sulfonamide], the DC50 was 10 to 50 nM at BRAF G466V (setting [1]), 10 to 50 nM on BRAF V600E (setting [3]), less than 10 nM on BRAF D594G (setting [5]) and 50 to 500 nM at BRAF G469A (setting [7]). Besides, the Dmax at BRAF G466V (setting [2]) is more than 70%; on BRAF V600E (setting [4]) it was more than 70%; on BRAF D594G (setting [6]), 30 to 70%; on BRAF G469A (setting [8]), 30 to 70%.
Take `CCCS(=O)(=O)Nc1cccc(-c2nc(C3CCN(C(=O)C4CCN(CC5CCN(c6ccc(C7CCC(=O)NC7=O)cn6)CC5)CC4)CC3)sc2-c2ccncc2)c1F` (racemic) [Compound 211, Rac-N-{3-[2-(1-{1-[(1-{5-[(3R)-2,6-dioxopiperidin-3-yl]pyridin-2-yl}piperidin-4-yl)methyl]piperidine-4-carbonyl}piperidin-4-yl)-5-(pyridin-4-yl)-1,3-thiazol-4-yl]-2-fluorophenyl}propane-1-sulfonamide]: the DC50 on BRAF G466V (setting [1]) is more than 500 nM; at BRAF V600E (setting [3]), 50 to 500 nM; at BRAF D594G (setting [5]), more than 500 nM; at BRAF G469A (setting [7]), more than 500 nM. The Dmax was 30 to 70% at BRAF G466V (setting [2]), more than 70% at BRAF V600E (setting [4]), 30 to 70% on BRAF D594G (setting [6]) and less than 30% at BRAF G469A (setting [8]).
As to `CCCS(=O)(=O)Nc1cc(Cl)cc(-c2cn(-c3ccc(N4CCN(CC5CCN(c6ccc(C7CCC(=O)NC7=O)cn6)CC5)[C@H](C)C4)cc3)nc2-c2ccncc2)c1F` (mixture of isomers) [Compound 276, N-[5-chloro-3-(1-{4-[(3R)-4-[(1-{5-[(3RS)-2,6-dioxopiperidin-3-yl]pyridin-2-yl}piperidin-4-yl)methyl]-3-methylpiperazin-1-yl]phenyl}-3-(pyridin-4-yl)-1H-pyrazol-4-yl)-2-fluorophenyl]propane-1-sulfonamide], the DC50 at BRAF G466V (setting [9]), on BRAF V600E (setting [11]), on BRAF D594G (setting [13]) and on BRAF G469A (setting [15]) was less than 10 nM in each case. Further, the Dmax at BRAF G466V (setting [10]) was more than 70%; at BRAF V600E (setting [12]), more than 70%; at BRAF D594G (setting [14]), 30 to 70%; at BRAF G469A (setting [16]), more than 70%.
Consider `CCC(C)S(=O)(=O)Nc1cc(Cl)cc(-c2cn(-c3ccc(N4CCN(CC5CCN(c6ccc([C@@H]7CCC(=O)NC7=O)cn6)CC5)CC4)cc3)nc2-c2ccncc2)c1F` (mixture of isomers) [Compound 329, Rac-(R)—N-(5-chloro-3-(1-(4-(4-((1-(5-((S)-2,6-dioxopiperidin-3-yl)pyridin-2-yl)piperidin-4-yl)methyl)piperazin-1-yl)phenyl)-3-(pyridin-4-yl)-1H-pyrazol-4-yl)-2-fluorophenyl)butane-2-sulfonamide], for which the DC50 on BRAF G466V (setting [9]) was less than 10 nM; at BRAF V600E (setting [11]), less than 10 nM; at BRAF D594G (setting [13]) it was less than 10 nM; on BRAF G469A (setting [15]) it was 10 to 50 nM. In addition, the Dmax on BRAF G466V (setting [10]), at BRAF V600E (setting [12]), on BRAF D594G (setting [14]) and at BRAF G469A (setting [16]) was more than 70% each time.
Turning to `CCCS(=O)(=O)Nc1cccc(-c2nc(C3CCC4(CC3)CCN(CC3CCN(c5ccc6c(c5)CN(C5CCC(=O)NC5=O)C6=O)CC3)CC4)sc2-c2ccnc(N)n2)c1F` (racemic) [Compound 258, Rac-N-{3-[5-(2-aminopyrimidin-4-yl)-2-{3-[(1-{2-[(3R)-2,6-dioxopiperidin-3-yl]-1-oxo-2,3-dihydro-1H-isoindol-5-yl}piperidin-4-yl)methyl]-3-azaspiro[5.5]undecan-9-yl}-1,3-thiazol-4-yl]-2-fluorophenyl}propane-1-sulfonamide], the DC50 at BRAF G466V (setting [9]) is more than 500 nM; on BRAF V600E (setting [11]), less than 10 nM; at BRAF D594G (setting [13]), more than 500 nM; on BRAF G469A (setting [15]), more than 500 nM. Besides, the Dmax at BRAF G466V (setting [10]) is 30 to 70%; on BRAF V600E (setting [12]), 30 to 70%; at BRAF D594G (setting [14]) it was less than 30%; at BRAF G469A (setting [16]), less than 30%.
For the compound `CCCS(=O)(=O)Nc1cccc(-c2cn(-c3ccc(C4CCN(CC5CCN(c6ccc(C7CCC(=O)NC7=O)cn6)CC5)CC4)cc3)nc2-c2ccncc2)c1F` (racemic) [Compound 24, Rac-N-{3-[1-(4-{1-[(1-{5-[(3R)-2,6-dioxopiperidin-3-yl]pyridin-2-yl}piperidin-4-yl)methyl]piperidin-4-yl}phenyl)-3-(pyridin-4-yl)-1H-pyrazol-4-yl]-2-fluorophenyl}propane-1-sulfonamide], the DC50 at BRAF G466V (setting [1]) was 10 to 50 nM; on BRAF V600E (setting [3]) it was 10 to 50 nM; on BRAF D594G (setting [5]), more than 500 nM; at BRAF G469A (setting [7]), more than 500 nM. Further, the Dmax at BRAF G466V (setting [2]) is 30 to 70%; at BRAF V600E (setting [4]), more than 70%; at BRAF D594G (setting [6]) it was 30 to 70%; at BRAF G469A (setting [8]), less than 30%.
In the case of `CCCS(=O)(=O)Nc1cc(Cl)cc(-c2cn(-c3ccc(N4CCN(CC5CCN(c6ccc(C7CCC(=O)NC7=O)cn6)CC5)[C@@H](C)C4)cc3)nc2-c2ccncc2)c1F` (mixture of isomers) [Compound 279, N-[5-chloro-3-(1-{4-[(3S)-4-[(1-{5-[(3RS)-2,6-dioxopiperidin-3-yl]pyridin-2-yl}piperidin-4-yl)methyl]-3-methylpiperazin-1-yl]phenyl}-3-(pyridin-4-yl)-1H-pyrazol-4-yl)-2-fluorophenyl]propane-1-sulfonamide], the DC50 on BRAF G466V (setting [9]) is less than 10 nM; on BRAF V600E (setting [11]) it was less than 10 nM; on BRAF D594G (setting [13]) it was less than 10 nM; at BRAF G469A (setting [15]), 10 to 50 nM. The Dmax was more than 70% on BRAF G466V (setting [10]), more than 70% on BRAF V600E (setting [12]), 30 to 70% on BRAF D594G (setting [14]) and 30 to 70% at BRAF G469A (setting [16]).
As for `CCCS(=O)(=O)Nc1cccc(-c2nc(C(C)(C)C)sc2-c2ccnc(Nc3ccc(N4CCN(CC5CCN(c6ccc([C@H]7CCC(=O)NC7=O)cc6)CC5)CC4)c(F)c3)n2)c1F` [Compound 87, N-[3-(2-tert-butyl-5-{2-[(4-{4-[(1-{4-[(3R)-2,6-dioxopiperidin-3-yl]phenyl}piperidin-4-yl)methyl]piperazin-1-yl}-3-fluorophenyl)amino]pyrimidin-4-yl}-1,3-thiazol-4-yl)-2-fluorophenyl]propane-1-sulfonamide], the DC50 was 10 to 50 nM at BRAF G466V (setting [1]), 10 to 50 nM at BRAF V600E (setting [3]), more than 500 nM at BRAF D594G (setting [5]) and more than 500 nM at BRAF G469A (setting [7]). Besides, the Dmax was 30 to 70% on BRAF G466V (setting [2]), more than 70% at BRAF V600E (setting [4]), 30 to 70% on BRAF D594G (setting [6]) and 30 to 70% at BRAF G469A (setting [8]).
Consider `CCCS(=O)(=O)Nc1cccc(-c2cn(-c3ccc(N4CCN(CC5CCN(c6ccc([C@H]7CCC(=O)NC7=O)cn6)CC5)CC4)cc3)nc2-c2ccncc2)c1F` [Compound 2, N-{3-[1-(4-{4-[(1-{5-[(3R)-2,6-dioxopiperidin-3-yl]pyridin-2-yl}piperidin-4-yl)methyl]piperazin-1-yl}phenyl)-3-(pyridin-4-yl)-1H-pyrazol-4-yl]-2-fluorophenyl}propane-1-sulfonamide], for which the DC50 at BRAF G466V (setting [1]) is 10 to 50 nM; at BRAF V600E (setting [3]), 50 to 500 nM; on BRAF D594G (setting [5]) it was 10 to 50 nM; on BRAF G469A (setting [7]), 10 to 50 nM. The Dmax was 30 to 70% at BRAF G466V (setting [2]), more than 70% on BRAF V600E (setting [4]), 30 to 70% at BRAF D594G (setting [6]) and 30 to 70% on BRAF G469A (setting [8]).
